Assays:
[1] = biological target: T1, Recombinant human liver GK1 (GST-GK) (Homo sapiens, UniProt P35557); assay: In vitro glucokinase activity assay (G6PDH-coupled, NADH, OD340); assay type: biochemical; details: concentration of activator that produced a 50% increase in the activity of GK; 5 mM D-glucose, 30° C.
T1 construct: made in house; host or cells: E. coli
T1 sequence (P35557 1-466 isoform P35557-2): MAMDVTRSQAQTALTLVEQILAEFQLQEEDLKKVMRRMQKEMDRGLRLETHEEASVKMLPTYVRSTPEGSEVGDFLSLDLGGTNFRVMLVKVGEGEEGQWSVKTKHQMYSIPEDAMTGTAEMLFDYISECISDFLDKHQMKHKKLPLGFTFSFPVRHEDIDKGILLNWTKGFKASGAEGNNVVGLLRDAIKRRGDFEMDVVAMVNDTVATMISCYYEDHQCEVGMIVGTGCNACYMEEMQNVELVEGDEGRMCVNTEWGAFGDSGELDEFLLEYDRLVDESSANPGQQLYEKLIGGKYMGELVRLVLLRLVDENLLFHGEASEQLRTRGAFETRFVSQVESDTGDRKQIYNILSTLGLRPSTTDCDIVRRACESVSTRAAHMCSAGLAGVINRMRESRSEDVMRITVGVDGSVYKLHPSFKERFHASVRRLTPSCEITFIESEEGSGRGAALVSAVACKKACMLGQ
How it was run: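 GST-fused human liver GK1 from E. coli, run at 30° C. in pH 7.1 HEPES with 5 mM glucose, 1 mM ATP and 10% DMSO, coupled via G6PDH to NADH. OD340 rate measured after enzyme start; SC1.5 is the activator concentration raising activity 50% over DMSO control.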

[2] = test system: C57BL/6J mice; assay: Glucokinase activator in vivo screen, blood glucose after oral gavage in lean and diet induced obese mice; details: Mus musculus, C57B6 mice, read-out: % gluc lowering @ 2 H; for change in vivo at 50 mg/kg: vs control at 2 hours post 50 mg/kg oral dose
Procedure: Glucokinase Activator in vivo Screen Protocol in Lean and Diet Induced Obese Mice: Lean or Diet-Induced Obese (DIO) C57BL/6J mice were orally dosed via gavage with Glucokinase (GK) activator following a two hour fasting period. Blood glucose determinations were made at various (e.g. 0, 1, 2, 4 and 8 hours post-oral gavage) times during the study.
C57Bl/6J mice were obtained from Jackson Laboratory (Bar Harbor, Me.) and were maintained in a light-dark cycle with lights on from 0600-1800 hr. For studies in lean mice, the mice were received at age ten weeks and given ad libitum access to control diet (LabDiet 5001 chow, PMI Nutrition, Brentwood, Mo.), and were at least age 11 weeks at the time of study. For studies in the DIO model, the mice were received at age five weeks and given ad libitum access to Bio-Sery F3282 High Fat Diet (Frenchtown, N.J.), and were at least age 16 weeks at the time of study. The experiments were conducted during the light phase of the light-dark cycle. Mice (n=6) are weighed and fasted for a two hour period prior to oral treatment. GK activators are formulated in Gelucire vehicle (Ethanol:Gelucire44/14:PEG400q.s. 4:66:30 v/w/v. For studies in lean mice, the mice were dosed orally with 5.04 per gram of body weight (i.e. 5 ml/kg×10.0 mg/ml formulation to equal a 50 mg/kg dose). For studies in DIO mice, the mice were dosed orally with 5.04 per gram of body weight (i.e. 5.0 ml/kg×5 mg/ml formulation to equal a 25 mg/kg dose). Immediately prior to dosing, a pre-dose (time zero) blood glucose reading was acquired by snipping off a small portion of the animal's tail and collecting […] blood into a heparinized capillary tube for analysis. Following GK activator administration, additional blood glucose readings were taken at various time points post dose from the same tail wound. Results were interpreted by comparing the mean blood glucose values of vehicle treated mice with GK activator treated mice over the study period.
The Table below provides data for % glucose lowering of a representative number of compounds of the present invention vs control at 2 hours post 25 or 50 mg/kg dose in C57B6 mice: […]

SMILES | SC1.5 [1] [µM] | change in vivo at 25 mg/kg ([2]; vs control at 2 hours post 25 mg/kg oral dose) [%] | change in vivo at 50 mg/kg [2] [%]
CS(=O)(=O)c1ccc(/C(=C\C2CCOCC2)c2cc3cc(F)cnc3[nH]2)cc1 [Example 122, 5-Fluoro-2-[(E)-1-(4-methanesulfonyl-phenyl)-2-(tetrahydro-pyran-4-yl)-vinyl]-1H-pyrrolo[2,3-b]pyridine] | 0.051 | -59.4 | 
CS(=O)(=O)c1ccc(C(CC2CCCC2)c2cc3cccnc3[nH]2)cc1 (stereo not drawn) [Example 138, 2-[2-Cyclopentyl-1-(4-methanesulfonyl-phenyl)-ethyl]-1H-pyrrolo[2,3-b]pyridine] | 0.236 |  | -50.4
Clc1ccc(C(CC2CCCC2)c2cc3cccnc3[nH]2)cc1Cl (stereo not drawn) [Example 139, 2-[2-Cyclopentyl-1-(3,4-dichloro-phenyl)-ethyl]-1H-pyrrolo[2,3-b]pyridine] | 1.1 |  | 25.4
